Patent publication US9023354B2, “Combination therapy with MDM2 and EFGR inhibitors” (priority 2010, dated 2015)
Like-named read-outs stand apart in the source and are kept apart here.

System: A431 cells
Assay: A431 cell proliferation assay (MTT), alone and in combination with Tarceva
Type: cell-based
Details: for IC50: further studies, Example 9, Table 7A, read-out: A431 Cell Proliferation (IC50 Value); for A431 Cell Proliferation CI Value: combination with Tarceva, CI <0.8 indicates synergy, Example 9, Table 7B
Method: This example describes an assay that measures the ability of compounds to inhibit the proliferation of cultured cells. This assay can also be used to assess whether combining two or more compounds produces additive, synergistic, or antagonistic effects on cell growth.
On day 1, the cells were seeded at 10^3 cells per well in 100 μl of complete media under standard conditions.
On day 2, the cells were washed and 100 μl serum free media was added. The cells were then incubated for at least 2 hours before the addition of compound(s). 20 μl of compound(s) was added to the respective wells and incubated at 37° C., 5% CO2 for 72 hrs.
On day 5, 50 μl of the MTT dye solution was added to each well. The plates were incubated at 37° C., 5% CO2 for 1 hr. The media was then aspirated and the cells were resuspended in […] of DMSO. The plates were allowed to incubate for 5 min at room temperature with gentle shaking.
The absorbance in each well was determined at 560 nm using a Polarstar plate reader.
The A431 cell line over-expresses the EGF receptor, and was utilized to assess the ability of AD4 compounds to inhibit EGF-mediated cell proliferation.

[1] = Homo sapiens, A-431, A431 cells

| SMILES | IC50 [1] [µM] | A431 Cell Proliferation CI Value | IC50 (A431 cells) [µM] |
| --- | --- | --- | --- |
| Cc1cc(Cl)cnc1NC(c1ccc(F)cc1F)c1ccc2cccnc2c1O (stereo not drawn) [AD4-13068] | 5.8 | 0.68 | – |
| Oc1c(C(Nc2ccc(C(F)(F)F)cn2)c2ccc(C(F)(F)F)cc2)ccc2cccnc12 (stereo not drawn) [AD4-13028] | 1.8 | 0.76 | – |
| Oc1c(C(Nc2ccc(F)cn2)c2ccccc2Cl)ccc2cccnc12 (stereo not drawn) [AD4-13104] | 2.8 | 0.67 | – |
| Oc1c(C(Nc2ccc(Cl)cn2)c2cc(Cl)cc(Cl)c2Cl)ccc2cccnc12 (stereo not drawn) [AD4-13111] | 0.74 | 0.95 | – |
| Cc1cc(NC(c2ccc(Cl)c(C(F)(F)F)c2)c2ccc3cccnc3c2O)ncc1Cl (stereo not drawn) [AD4-13108] | 1.6 | 0.84 | – |
| Oc1c(C(Nc2ccc(C(F)(F)F)cn2)c2ccc(F)cc2F)ccc2cccnc12 (stereo not drawn) [AD4-13029] | 1.8 | 0.83 | – |
| Oc1c(C(Nc2ccc(F)cn2)c2cc(Cl)cc(Cl)c2Cl)ccc2cccnc12 (stereo not drawn) [AD4-13132] | 1.9 | 0.82 | – |
| Oc1c(C(Nc2ccc(C(F)(F)F)cn2)c2cc(C(F)(F)F)ccc2Cl)ccc2cccnc12 (stereo not drawn) [AD4-13056] | 1.9 | 0.63 | – |
| Oc1c(C(Nc2ccc(Cl)cn2)c2cccc(Cl)c2Cl)ccc2cccnc12 (stereo not drawn) [AD4-13086] | 1.5 | 0.80 | – |
| Oc1c(C(Nc2ccc(C(F)(F)F)nc2)c2ccc(C(F)(F)F)cc2F)ccc2cccnc12 (stereo not drawn) [AD4-13065] | 4.6 | 0.61 | – |
| Oc1c(C(Nc2cc(Cl)c(Cl)cn2)c2ccc(Cl)c(Cl)c2)ccc2cccnc12 (stereo not drawn) [AD4-13177] | 2 | 0.9 | – |
| Cc1cccc(NC(c2cccc(Cl)c2Cl)c2ccc3cccnc3c2O)n1 (stereo not drawn) [AD4-12905] | – | 0.67 | – |
| COc1ccc(C(Nc2cccc(C)n2)c2ccc3cccnc3c2O)cc1O (stereo not drawn) [AD4-12909] | – | 0.54 | – |
| Oc1c(C(Nc2ccc(Cl)cn2)c2c(F)cccc2Cl)ccc2cccnc12 (stereo not drawn) [AD4-13091] | 1.6 | 0.89 | – |
| Oc1c(C(Nc2ccc(Cl)cn2)c2cc(C(F)(F)F)ccc2Cl)ccc2cccnc12 (stereo not drawn) [AD4-13052] | 1 | 0.75 | – |
| Oc1c(C(Nc2ccccn2)c2c(F)c(F)c(OCC(F)(F)F)c(F)c2F)ccc2cccnc12 (stereo not drawn) [AD4-13093] | 1.8 | 0.80 | – |
| Cc1cc(NC(c2ccc(C(F)(F)F)c(F)c2)c2ccc3cccnc3c2O)ncc1Cl (stereo not drawn) [AD4-13106] | 0.65 | 0.75 | – |
| Oc1c(C(Nc2ccc(F)cn2)c2ccc(Cl)c(Cl)c2)ccc2cccnc12 (stereo not drawn) [AD4-13113] | – | 0.59 | – |
| Oc1c(C(Nc2cc(Cl)ccn2)c2ccc(Cl)c(Cl)c2)ccc2cccnc12 (stereo not drawn) [AD4-13069] | 0.92 | 0.91 | – |
| Cc1cccc(NC(c2cc(Cl)cc(Cl)c2Cl)c2ccc3cccnc3c2O)n1 (stereo not drawn) [AD4-13023] | 1.8 | 0.74 | – |
| Cc1cc(NC(c2ccc3cccnc3c2O)c2c(Cl)cccc2Cl)ncc1F (stereo not drawn) [AD4-13125] | 1.7 | 0.70 | – |

| SMILES | IC50 [1] [µM] | A431 Cell Proliferation CI Value | IC50 (A431 cells) [µM] |
| --- | --- | --- | --- |
| Oc1c(C(Nc2ccc(Cl)cn2)c2ccc(C(F)(F)F)c(F)c2)ccc2cccnc12 (stereo not drawn) [AD4-13055] | 1.5 | 0.75 | – |
| Cc1ccnc(NC(c2ccc(Cl)cc2Cl)c2ccc3cccnc3c2O)c1 (stereo not drawn) [AD4-12912] | 1.2 | 0.70 | – |
| Oc1c(C(Nc2ccc(F)cn2)c2cc(C(F)(F)F)ccc2Cl)ccc2cccnc12 (stereo not drawn) [AD4-13049] | 1.8 | 0.84 | – |
| Cc1ccc2ccc(C(Nc3ncc(Cl)cc3C)c3ccc(Cl)cc3Cl)c(O)c2n1 (stereo not drawn) [AD4-13200] | 1.5 | 0.97 | – |
| Oc1c(C(Nc2ccc(Cl)cn2)c2ccc(Cl)c(C(F)(F)F)c2)ccc2cccnc12 (stereo not drawn) [AD4-13067] | – | 0.63 | – |
| Cc1cccc(NC(c2cccc(Cl)c2Cl)c2ccc3ccc(C)nc3c2O)n1 (stereo not drawn) [AD4-13073] | 1.6 | 0.85 | – |
| Oc1c(C(Nc2ccc(Cl)cn2)c2cc(Cl)cc(Cl)c2)ccc2cccnc12 (stereo not drawn) [AD4-13094] | 1.3 | 0.76 | – |
| Oc1c(C(Nc2ccccn2)c2cc(Cl)cc(Cl)c2)ccc2cccnc12 (stereo not drawn) [AD4-12914] | 1.4 | 0.74 | – |
| COc1ccc(C(Nc2cc(Cl)c(Cl)cn2)c2ccc3cccnc3c2O)cc1OC (stereo not drawn) [AD4-13195] | – | 0.81 | – |
| Cc1cccc(NC(c2ccc(Cl)cc2Cl)c2ccc3cccnc3c2O)n1 (stereo not drawn) [AD4-12911] | 1.4 | 0.76 | – |
| Oc1c(C(Nc2ccc(Cl)cn2)c2ccc(Cl)c(Cl)c2)ccc2cccnc12 (stereo not drawn) [AD4-13054] | – | 0.61 | – |
| Oc1c(C(Nc2ccc(C(F)(F)F)cn2)c2ccc(Cl)c(C(F)(F)F)c2)ccc2cccnc12 (stereo not drawn) [AD4-13032] | 1.8 | 0.69 | – |
| Oc1c(C(Nc2ccc(F)cn2)c2cc(Cl)ccc2Cl)ccc2cccnc12 (stereo not drawn) [AD4-13102] | 1.4 | 0.75 | – |
| Oc1c(C(Nc2ccc(C(F)(F)F)cn2)c2ccc(C(F)(F)F)c(F)c2)ccc2cccnc12 (stereo not drawn) [AD4-13034] | 1.9 | 0.70 | – |
| Oc1c(C(Nc2cccnc2)c2cccc(Cl)c2Cl)ccc2cccnc12 (stereo not drawn) [AD4-12908] | 4.2 | 0.64 | – |
| Cc1cc(Cl)cnc1NC(c1cc(C(F)(F)F)ccc1Cl)c1ccc2cccnc2c1O (stereo not drawn) [AD4-13058] | – | 0.50 | – |
| Oc1c(C(Nc2ccc(F)cn2)c2c(F)cccc2Cl)ccc2cccnc12 (stereo not drawn) [AD4-13112] | 2.1 | 0.73 | – |
| Oc1c(C(Nc2ccc(C(F)(F)F)cn2)c2ccc(Cl)c(Cl)c2)ccc2cccnc12 (stereo not drawn) [AD4-13030] | 2 | 0.83 | – |
| Oc1c(C(Nc2ncc(Cl)cc2F)c2cccc(C(F)(F)F)c2)ccc2cccnc12 (stereo not drawn) [AD4-13145] | 2.4 | 0.86 | – |
| Cc1cc(NC(c2ccc3cccnc3c2O)c2c(F)cccc2Cl)ncc1F (stereo not drawn) [AD4-13117] | 1.3 | 0.72 | – |
| Cc1cccc(NC(c2ccc3ccc(C)nc3c2O)c2c(Cl)cccc2Cl)n1 (stereo not drawn) [AD4-13089] | – | 0.67 | – |

| SMILES | IC50 [1] [µM] | A431 Cell Proliferation CI Value | IC50 (A431 cells) [µM] |
| --- | --- | --- | --- |
| Cc1cccc(NC(c2cccc(C(F)(F)F)c2)c2ccc3cccnc3c2O)n1 (stereo not drawn) [AD4-12903] | – | 0.67 | – |
| Oc1c(C(Nc2ccc(C(F)(F)F)cn2)c2ccc(C(F)(F)F)cc2F)ccc2cccnc12 (stereo not drawn) [AD4-13031] | 1.6 | 0.74 | – |
| Oc1c(C(Nc2ccc(Cl)cn2)c2c(Cl)cccc2Cl)ccc2cccnc12 (stereo not drawn) [AD4-13109] | 1.5 | 0.88 | – |
| Oc1c(C(Nc2ccc(F)cn2)c2cc(Cl)cc(Cl)c2)ccc2cccnc12 (stereo not drawn) [AD4-13098] | 1.6 | 0.86 | – |
| Oc1c(C(Nc2ccc(F)cn2)c2cccc(Cl)c2Cl)ccc2cccnc12 (stereo not drawn) [AD4-13103] | 1.4 | 0.79 | – |
| Cc1cccc(NC(c2ccc(Cl)cc2Cl)c2ccc3ccc(C)nc3c2O)n1 (stereo not drawn) [AD4-13082] | 1.9 | 0.90 | – |
| Oc1c(C(Nc2cccnc2)c2cccs2)ccc2cccnc12 (stereo not drawn) [AD4-10315] | – | 0.79 | – |
| Oc1c(C(Nc2ccc(Cl)cn2)c2ccc(F)cc2Cl)ccc2cccnc12 (stereo not drawn) [AD4-13088] | 1.5 | 0.76 | – |
| Cc1cccc(NC(c2ccc(Cl)c(Cl)c2)c2ccc3ccc(C)nc3c2O)n1 (stereo not drawn) [AD4-13080] | – | 0.68 | – |
| COc1ccc(C(Nc2cc(Cl)c(Cl)cn2)c2ccc3cccnc3c2O)c(OC)c1OC (stereo not drawn) [AD4-13197] | – | 0.63 | – |
| Cc1ccnc(NC(c2ccc(C(F)(F)F)cc2F)c2ccc3ccc(C)nc3c2O)c1 (stereo not drawn) [AD4-13096] | 3 | 0.61 | – |
| Cc1cc(Cl)cnc1NC(c1ccc2cccnc2c1O)c1c(F)c(F)cc(F)c1F (stereo not drawn) [AD4-13059] | 1 | 0.71 | – |
| Oc1c(C(Nc2ccc(F)cn2)c2c(F)c(F)cc(F)c2F)ccc2cccnc12 (stereo not drawn) [AD4-13070] | – | 0.65 | – |
| Cc1cc(Cl)cnc1NC(c1ccc(F)cc1Cl)c1ccc2cccnc2c1O (stereo not drawn) [AD4-13198] | – | 0.87 | 3 |
| Cc1cccc(NC(c2ccc(OC(F)(F)F)cc2)c2ccc3cccnc3c2O)n1 (stereo not drawn) [AD4-12902] | – | 0.7 | – |
| Cc1ccc2ccc(C(Nc3cccnc3)c3c(F)c(F)c(OCC(F)(F)F)c(F)c3F)c(O)c2n1 (stereo not drawn) [AD4-13101] | – | 0.66 | – |
| Oc1c(C(Nc2ccccn2)c2cc(Cl)ccc2Cl)ccc2cccnc12 (stereo not drawn) [AD4-12910] | – | 0.69 | – |
| Cc1ccnc(NC(c2ccc3cccnc3c2O)c2c(F)c(F)c(OCC(F)(F)F)c(F)c2F)c1 (stereo not drawn) [AD4-13092] | 1.5 | 0.79 | – |
| Cc1ccnc(NC(c2cc(Cl)cc(Cl)c2)c2cc(Cl)c3cccnc3c2O)c1 (stereo not drawn) [AD4-13079] | 1.8 | 0.91 | – |
| Oc1c(C(Nc2ccc(C(F)(F)F)nc2)c2ccc(C(F)(F)F)cc2)ccc2cccnc12 (stereo not drawn) [AD4-13063] | 4.4 | 0.77 | – |
